Data as given in article PMC12377485, “Targeting the ANXA8–SP1–PPA1 Axis to Modulate TCA Cycle and Matrix Deposition in Diffuse-Type Gastric Cancer” (Research, 2025).

Target: T1, ANXA8 (Homo sapiens, UniProt P13928)
T1 construct: commercial recombinant protein (MCE); His tag implied by RED-tris-NTA labelling
T1 sequence (P13928 1-327): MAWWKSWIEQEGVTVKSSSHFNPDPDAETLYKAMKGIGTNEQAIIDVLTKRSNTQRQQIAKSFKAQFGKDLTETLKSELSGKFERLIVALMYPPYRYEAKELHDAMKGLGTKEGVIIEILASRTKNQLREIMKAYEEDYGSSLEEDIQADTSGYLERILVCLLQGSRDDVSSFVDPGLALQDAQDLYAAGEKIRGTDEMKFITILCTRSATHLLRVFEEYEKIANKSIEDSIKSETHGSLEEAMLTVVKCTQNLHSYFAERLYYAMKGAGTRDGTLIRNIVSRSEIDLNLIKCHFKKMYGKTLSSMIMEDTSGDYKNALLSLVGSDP
Experiment: microscale thermophoresis (Monolith NT.[…]), one-site fit
Format: binding

- Kd: 83.5 nM
Structure (SMILES): CCCCNc1ncc2c(-c3ccc(CN4CCN(C)CC4)cc3)cn([C@H]3CC[C@H](O)CC3)c2n1 [UNC2025]
